This note sets out measurements from the supplement of paper PMC4862054.

Holding throughout (details): 72 h
One experiment relates to MDA-MB-468. In short, it runs like this: (§1)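 Two sequential readouts followed a 72 h incubation of breast cancer cell lines with compound at 5 concentrations in 10-fold steps over a compound-specific 10,000-fold range: CellTox Green fluorescence (485/520 nm) for cell death, then CellTiter-Glo luminescence, after 10 min at room temperature, for viability. Each plate was normalised to 0.1 % DMSO and a positive kill control. Dose-response curves were fitted for EC50, censored at the top concentration.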

The test system of a further experiment is CAL-51. The procedure, abridged: as §1
In another experiment the test system is BT-474. The procedure, abridged: as §1

As to `CCC1=C[C@@H]2CN(C1)Cc1c([nH]c3ccccc13)[C@@](C(=O)OC)(c1cc3c(cc1OC)N(C)[C@H]1[C@@](O)(C(=O)OC)[C@H](OC(C)=O)[C@]4(CC)C=CCN5CC[C@]31[C@@H]54)C2` [Vinorelbine], the “EC50, CellTiter-Glo” value stood at 0.0267 µM in the experiment with MDA-MB-468, 0.118 µM with CAL-51 and 0.0763 µM with BT-474.

Take `O=C(CCCCCCC(=O)Nc1ccc([C@H]2O[C@@H](CSc3nc(-c4ccccc4)c(-c4ccccc4)o3)C[C@@H](c3ccc(CO)cc3)O2)cc1)NO` [Tubacin]: the results for the “EC50, CellTiter-Glo” value with MDA-MB-468, with CAL-51 and in the experiment with BT-474 were 1.73 µM, 4.57 µM and 3.65 µM, respectively.
